Data on 13 compounds can be found in patent publication US20260174739A1 (priority 2022, published 2026).

The Ki is a dissociation constant, usually derived from enzyme kinetics or from competition with a known ligand. The Cmax is the highest concentration seen after dosing. By IC50 is commonly meant the point on the concentration scale where inhibition reaches its midpoint.

Read-outs that look alike come from different tables or passages of the source.

Series [1] in a line: Human liver microsome assay (metabolic stability). The series is classed as in vitro ADME. The conditions noted are these: pH 7.4. Here is the method:
Control and reagent: NADPH, magnesium chloride, testosterone, phosphate buffer, etc. were supplied by Dalian Meilun Biotech Co., Ltd., etc.
Liver microsome: human liver microsomes were supplied by Corning.
Experimental step: the liver microsome incubations were performed in 96-well plates, each incubation system having a volume of 200 μL, in a medium of 0.1 M phosphate buffer (pH 7.4), including liver microsomes at a final concentration of 0.2 mg/mL, 1 μM of the test drug, 3.0 mM MgCl2, 0.01% DMSO, 0.5% acetonitrile, and 2.0 mM NADPH. The incubation system described above without NADPH was pre-incubated at 37° C. for 5 min using a rotary water bath constant temperature oscillator. NADPH was added to initiate the reaction. At 0, 5, 15, 30, and 60 min, 20 μL of the sample was taken out from the incubation system after mixing well and added to 200 μL of acetonitrile containing an internal standard to terminate the reaction. Under the same conditions, 1 μM testosterone was used as a positive control to assess the reliability of the reaction system. For the negative control, phosphate buffer was used instead of NADPH, and all other incubation conditions remained the same. At 60 min, 20 μL of the sample was taken out after mixing well and added to 200 μL of termination solution containing an internal standard to terminate the reaction.
Sample analysis: After treatments such as precipitated protein extraction with an organic solvent, the incubated sample was analyzed using liquid chromatography-tandem mass spectrometry (LC-MS/MS). The concentrations of the test drug or the positive control drug in the sample were semi-quantified. The concentration in the sample was expressed using the ratio of the analyte peak area to the internal standard peak area.
Data processing and analysis: A standard curve of the In residual rate of the drug in the incubation system with respect to the incubation time was plotted by using Excel software, linear regression was performed to obtain a slope k, and the half-life T1/2 (min) and the intrinsic clearance CLint (mL/min/kg) were calculated according to the following formula: […]

Another series deals with Sigma2 receptor (Homo sapiens, UniProt Q5BJF2). Nature of the series: Sigma receptor affinity assay ([3H]-DTG binding), Sigma2R. Here is the method: Cell membrane: the membrane protein adopted in the experiment was extracted from an HEK293 cell strain stably expressing Sigmal receptor and an HEK293 cell strain stably expressing Sigma2 receptor, which were constructed by WuXi AppTec.
Sequence of Sigma2 receptor (Q5BJF2 whole entry, species assumed): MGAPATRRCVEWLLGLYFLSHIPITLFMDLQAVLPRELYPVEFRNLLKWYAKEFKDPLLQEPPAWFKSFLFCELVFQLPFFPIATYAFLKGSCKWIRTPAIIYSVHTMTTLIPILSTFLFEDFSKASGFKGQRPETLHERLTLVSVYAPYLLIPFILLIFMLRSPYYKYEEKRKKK
• 1) Detection buffer: 50 mM Tris-HCl, pH=7.4, stored at 4° C. • 2) Sigma 1R assay plate washing buffer: 50 mM Tris-HCl, pH=7.4, stored at 4° C.; sigma2R assay plate washing buffer: 50 mM Tris-HCl, 100 mM NaCl, pH=7.4, stored at 4° C. • 3) The compounds were diluted to each working concentration: 4-fold serial gradient dilutions for 8 concentrations.
The affinity inhibition constant Ki was calculated using the Cheng Prusoff equation: […]

Series [2] is described as follows: In vivo metabolism (pharmacokinetic) experiment in mice. The arrangement: species or system male ICR mice. To be noted: mouse. In a few lines: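 Fasted (12 h) male ICR mice received compound in 5% DMSO/5% Solutol HS15/90% saline at 2.5 mg/kg iv or 10 mg/kg po. Plasma and brain sampled 0.083–8 h (n=3 per time point) and analysed by LC-MS/MS. Parameters derived by non-compartmental analysis.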

In the next series the target is human NET (Homo sapiens, UniProt P23975). Nature of the series: NET transporter inhibitory activity test (neurotransmitter transporter uptake assay kit). The format is cell-based. How it is done: Transporter inhibition of human DAT and NET expressed in HEK-293 cells was assessed using a neurotransmitter transporter uptake assay kit. The assay was performed as described in the kit instructions, using centanafadine as a positive control. The specific procedures were as follows:
First day cell plating: HEK 293T cells were digested with trypsin, centrifuged, resuspended with a medium, counted, and seeded into a 6 cm culture dish at a density of 3×10^6 cells/well.
Second day cell transfection: HEK 293T cells were subjected to medium exchange, and then A, B tubes were prepared for NET-pcDNA5/FRT plasmid to be transfected. 200 μL of Opti-MEM was added to tube A, and 10 μL of Lipofectamine™ 3000 was added. The mixture was mixed well. 200 μL of Opti-MEM was added to tube B, and 5 μg of NET-pcDNA5/FRT plasmid was added. The mixture was mixed well, and then 10 μL of P3000™ was added to tube B. The mixture was mixed well (plasmid to transfection reagent ratio 1 μg:2 μL). The diluted solution of tube A was added to the diluted solution of tube B. The mixture was mixed well, and incubated at room temperature for 15 min. Finally, the mixture was gently added to the cells that had been subjected to medium exchange, gently shaken to mix, and then incubated overnight in an incubator at 37° C. with a carbon dioxide concentration of 5%. The cells were used for compound functional activity assays 18-20 h after transfection.
• a) After overnight transfection of NET cells, the cells were digested with trypsin, resuspended with DMEM+10% Dialyzed FBS medium, seeded into a 384-well plate at 20000 cells/well, and incubated overnight. Stably transfected DAT cells were digested with trypsin, resuspended with DMEM+10% Dialyzed FBS medium, seeded into a 384-well plate at 2500 cells/well, and incubated overnight. • b) 1× Assay buffer was prepared according to the kit instruction for later use; the positive compound and the test compound were serially diluted with DMSO, and then diluted to 2× with 1× assay buffer. • c) The medium was removed from the 384-well plate by centrifugation. • d) 16 μL of the compound prepared in step b) was added to corresponding experimental wells, wherein an initial concentration of 2× positive control compound was added to the positive control well, and 0.2% DMSO buffer was added to the negative control well. After centrifuging, the plate was incubated at 37° C. for 30 min. • e) A detection reagent was prepared using 1×HBSS, and 16 μL of the detection reagent was added to each well. After centrifuging, the plate was incubated at 37° C. for 60 min. • f) After incubation, the reading at 510 nm under the excitation of the detection wavelength of 425 nm was measured using a microplate reader. Curve fitting and IC50 calculation were performed using GraphPad Prism software nonlinear regression method.

The target of a further series is human DAT (Homo sapiens, UniProt Q01959). Nature of the series: DAT transporter inhibitory activity test (neurotransmitter transporter uptake assay kit). The format is cell-based.
Sequence of human DAT (Q01959 whole entry): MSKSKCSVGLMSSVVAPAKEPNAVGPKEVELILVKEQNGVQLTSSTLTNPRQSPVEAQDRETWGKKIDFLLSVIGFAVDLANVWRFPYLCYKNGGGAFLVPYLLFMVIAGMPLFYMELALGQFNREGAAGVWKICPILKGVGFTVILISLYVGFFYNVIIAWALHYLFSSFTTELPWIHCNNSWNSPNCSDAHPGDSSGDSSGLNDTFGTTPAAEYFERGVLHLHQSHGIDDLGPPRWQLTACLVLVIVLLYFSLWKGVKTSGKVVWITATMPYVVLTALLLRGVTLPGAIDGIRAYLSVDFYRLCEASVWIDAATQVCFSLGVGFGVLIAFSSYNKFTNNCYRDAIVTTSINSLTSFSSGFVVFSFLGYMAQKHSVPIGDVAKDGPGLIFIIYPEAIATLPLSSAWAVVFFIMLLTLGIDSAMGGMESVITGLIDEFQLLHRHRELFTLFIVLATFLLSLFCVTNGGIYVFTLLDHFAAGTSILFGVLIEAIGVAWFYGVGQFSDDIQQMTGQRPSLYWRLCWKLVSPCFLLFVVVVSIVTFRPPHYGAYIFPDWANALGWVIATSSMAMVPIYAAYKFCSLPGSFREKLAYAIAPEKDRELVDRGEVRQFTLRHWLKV
A further series deals with human SERT (Homo sapiens, UniProt P31645). Nature of the series: Inhibitory activity assay against 5-HT transporter (neurotransmitter transporter uptake assay kit). The format is cell-based. To be noted: HEK-293 cells overexpressing human SERT; read-out: 5-HTT (IC50). How it is done: In HEK-293 cells overexpressing human SERT, the transporter inhibitory effect of the test compound on human SERT was assayed using a Neurotransmitter transporter uptake assay kit (Molecular devices).
Sequence of human SERT (P31645 whole entry): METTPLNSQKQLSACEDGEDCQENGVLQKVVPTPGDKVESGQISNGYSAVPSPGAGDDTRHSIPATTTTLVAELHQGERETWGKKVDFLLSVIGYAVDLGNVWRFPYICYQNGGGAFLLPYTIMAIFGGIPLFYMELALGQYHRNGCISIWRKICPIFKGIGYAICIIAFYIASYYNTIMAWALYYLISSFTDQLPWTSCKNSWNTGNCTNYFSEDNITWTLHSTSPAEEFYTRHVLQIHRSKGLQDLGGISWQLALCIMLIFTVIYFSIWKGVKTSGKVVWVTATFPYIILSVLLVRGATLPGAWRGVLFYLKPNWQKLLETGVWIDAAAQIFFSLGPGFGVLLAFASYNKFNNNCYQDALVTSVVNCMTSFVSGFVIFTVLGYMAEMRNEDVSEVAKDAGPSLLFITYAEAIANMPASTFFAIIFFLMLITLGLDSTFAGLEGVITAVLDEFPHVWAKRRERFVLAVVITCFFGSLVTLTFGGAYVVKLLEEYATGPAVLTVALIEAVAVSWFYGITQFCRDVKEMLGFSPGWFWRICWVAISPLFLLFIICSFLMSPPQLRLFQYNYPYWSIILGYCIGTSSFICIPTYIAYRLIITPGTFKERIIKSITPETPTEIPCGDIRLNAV

The next series has as its system male C57 mice. Nature of the series: Forced swim test. The series is classed as in vivo. The conditions noted are these: intraperitoneal injection, test 0.5 h after dosing, motionless time in last 4 min. How it is done: Drug: the compound of the present disclosure was first uniformly mixed with 5% DMSO and 5% Solutol® HS 15. hysiological saline was then added to make up 90% of the final volume. The mixture was prepared at an appropriate concentration immediately before use.
Animal: male C57 mice, about 22 g. The animals were randomly divided into a blank control group and test drug groups, 8 animals per group, and mice in each group were administered either the vehicle or the test compound via intraperitoneal injection.
Experimental steps: the mice were subjected to forced swim test 0.5 h after dosing. The water level in the forced swim device was 45 cm, and the water temperature was 25° C. The mice were placed in an experimental room to adapt to the environment for 1 h before the experiment began. When the experiment began, the mice were placed in the device for 6 min, and the whole process was recorded by a camera. Only the motionless time of the mice in the last 4 min was counted when data were analyzed.

The mark [3] stands for this setting: human liver microsomes 0.2 mg/mL, 1 μM test drug, NADPH, 37° C., read-out: Half-life (t1/2, min).
Setting [4] is: human liver microsomes 0.2 mg/mL, 1 μM test drug, NADPH, 37° C., read-out: Intrinsic clearance (Clint, mL/min/kg).
The mark [5] stands for this setting: male ICR mice, oral 10 mg/kg vs iv 2.5 mg/kg, read-out: F (%).
Where [6] appears, read: male ICR mice, oral 10 mg/kg, plasma, read-out: AUC0-inf(po).
The mark [7] stands for this setting: male ICR mice, oral 10 mg/kg, plasma, read-out: Cmax (po).
Setting [8] is: male ICR mice, oral 10 mg/kg, plasma, read-out: T1/2 (po) (converted).
Where [9] appears, read: DAT stably transfected HEK cells, read-out: DAT (IC50).
Setting [10] is: HEK293 membranes stably expressing Sigma2 receptor, [3H]-DTG 5 nM, read-out: Sigma2R (Ki).

Sequence of human NET (P23975 whole entry): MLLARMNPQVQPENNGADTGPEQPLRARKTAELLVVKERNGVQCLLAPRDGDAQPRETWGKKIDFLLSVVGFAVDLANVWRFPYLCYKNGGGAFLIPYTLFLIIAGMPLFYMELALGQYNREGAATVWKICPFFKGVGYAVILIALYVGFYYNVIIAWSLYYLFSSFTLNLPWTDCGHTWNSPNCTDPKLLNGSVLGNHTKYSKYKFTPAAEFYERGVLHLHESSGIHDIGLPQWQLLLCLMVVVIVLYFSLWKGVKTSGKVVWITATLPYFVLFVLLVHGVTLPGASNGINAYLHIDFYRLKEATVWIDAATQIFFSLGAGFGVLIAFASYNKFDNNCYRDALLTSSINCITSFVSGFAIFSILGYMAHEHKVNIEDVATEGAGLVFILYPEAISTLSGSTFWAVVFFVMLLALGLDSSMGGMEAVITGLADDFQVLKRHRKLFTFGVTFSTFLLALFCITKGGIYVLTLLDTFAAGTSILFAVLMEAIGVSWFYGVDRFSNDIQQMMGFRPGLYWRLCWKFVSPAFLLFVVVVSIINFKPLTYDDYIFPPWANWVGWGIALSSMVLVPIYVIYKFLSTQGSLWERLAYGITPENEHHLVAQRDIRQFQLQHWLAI

Consider `NC1(c2ccccc2)CCc2ccsc2C1` (racemic) [rac-A19, 6-phenyl-4,5,6,7-tetrahydrobenzothiophen-6-amine], for which the half-life at 1 μM in series [1] (setting [3]) turned out to be 80 min. Further, the CLint scaled at 1 μM in series [1] (setting [4]) stood at 50.6 mL/min/kg. Besides, at Sigma2 receptor, the Ki came to 523 nM. Moreover, in series [2] (setting [5]), the bioavailability is 48%. Besides, in series [2] (setting [6]), the AUC(0-inf) is 797 ng·h/mL. Further, in series [2] (setting [7]), the Cmax is 284 ng/mL. In addition, the half-life in series [2] (setting [8]) is 2.84 h.
On to `Nc1nc2c(s1)CC(N)(c1cccc(F)c1)CC2` (racemic) [rac-A10, 6-(3-fluorophenyl)-4,5,6,7-tetrahydrobenzothiazole-2,6-diamine], for which the IC50 on human NET turned out to be 4200 nM; at human DAT (setting [9]) it was 6600 nM; at human SERT, 1300 nM.
Regarding `Nc1nc2c(s1)CC(c1ccccc1)(N1CCCC1)CC2` (racemic) [rac-A50, 6-Phenyl-6-(Pyrrolidin-1-Yl)-4,5,6,7-Tetrahydrobenzothiazol-2-amine], the IC50 at human NET was 800 nM; at human DAT (setting [9]), 100 nM; on human SERT it was 1700 nM. In addition, the bioavailability in series [2] (setting [5]) is 38%. In addition, the AUC(0-inf) in series [2] (setting [6]) came to 321 ng·h/mL. Also, in series [2] (setting [7]), the Cmax stood at 150 ng/mL. Also, the half-life in series [2] (setting [8]) is 1.48 h.
`Nc1nc2c(s1)CC(c1ccccc1)(N1CCCCC1)CC2` (racemic) [rac-A48, 6-phenyl-6-(piperidin-1-yl)-4,5,6,7-tetrahydrobenzothiazol-2-amine]: on human NET (NET transiently transfected HEK 293T cells, read-out: NET (IC50)), the IC50 is 4600 nM. Further, in series [1] (human, microsomes), the CLint scaled at 1 μM is 7.4 mL/min/kg and the half-life at 1 μM stood at 547 min. Also, the “Effective dose” value in the series with male C57 mice is reported as 1 mg/kg. On human DAT, this compound gave an IC50 of 760 nM.
For `N[C@]1(c2ccccc2)CCc2ccsc2C1` [R-A19], on Sigma2 receptor (setting [10]), the inhibition constant Ki is 1270 nM. Further, the half-inhibitory concentration (IC50) on human SERT was 1200 nM.
Take `N[C@@]1(c2ccccc2)CCc2ccsc2C1` [S-A19]: the Ki on Sigma2 receptor (setting [10]) came out at 1120 nM.
On to `CN[C@@]1(c2ccccc2)CCc2nc(N)sc2C1` [S-A3], for which, on Sigma2 receptor (setting [10]), the Ki came to 990 nM. On human DAT (setting [9]), the IC50 came out at 1600 nM.
With `CN[C@]1(c2ccccc2)CCc2nc(N)sc2C1` [R-A3], on Sigma2 receptor (setting [10]), the inhibition constant Ki was 1760 nM. In addition, the concentration for half-maximal inhibition (IC50) on human SERT came to 1200 nM.
For `Nc1nc2c(s1)CC(c1cccc(Cl)c1)(N1CCCCC1)CC2` (racemic) [rac-A49, 6-(3-chlorophenyl)-6-(piperidin-1-yl)-4,5,6,7-tetrahydrobenzothiazol-2-amine], the IC50 is 2500 nM at human NET, 330 nM on human DAT (setting [9]) and 1200 nM on human SERT. Further, the half-life at 1 μM in series [1] (setting [3]) was 117 min. For the same compound, the CLint scaled at 1 μM in series [1] (setting [4]) is 34.7 mL/min/kg.
On to `CNC1(c2ccccc2)CCc2ncsc2C1` (racemic) [rac-A13, N-methyl-6-phenyl-4,5,6,7-tetrahydrobenzothiazol-6-amine], for which the half-life at 1 μM in series [1] (setting [3]) was 266 min. Moreover, the CLint scaled at 1 μM in series [1] (setting [4]) was 15.2 mL/min/kg. The “Effective dose” value with male C57 mice was 2.5 mg/kg. The compound further displayed an inhibitory constant (Ki) on Sigma2 receptor of 308 nM. The bioavailability in series [2] (setting [5]) stood at 78%. Moreover, in series [2] (setting [6]), the AUC(0-inf) amounted to 845 ng·h/mL. For the same compound, the Cmax in series [2] (setting [7]) was determined as 518 ng/mL. The half-life in series [2] (setting [8]) is 1.98 h.
As for `Nc1nc2c(s1)CC(c1cccc(Cl)c1)(N1CCCC1)CC2` (racemic) [rac-A51, 6-(3-chlorophenyl)-6-(pyrrolidin-1-yl)-4,5,6,7-tetrahydrobenzothiazol-2-amine], the IC50 worked out at 300 nM on human NET, 200 nM at human DAT (setting [9]) and 1200 nM at human SERT.
With `CNC1(c2ccccc2)CCc2nc(N)sc2C1` (racemic) [rac-A3, N^6-methyl-6-phenyl-4,5,6,7-tetrahydrobenzothiazole-2,6-diamine], in the series on male C57 mice, the “Effective dose” value stood at 3 mg/kg. Moreover, the Ki at Sigma2 receptor (setting [10]) was 124 nM. The compound also displayed an AUC(0-inf) in series [2] (male, ICR, po, 10 mg/kg, AUC0-inf(po) (ng*h/mL)) of 1160 ng·h/mL. Further, the Cmax in series [2] (male, ICR, po, 10 mg/kg, Cmax (po) (ng/mL)) worked out at 330 ng/mL. For the same compound, the bioavailability in series [2] (male, ICR, po, 10 mg/kg, F (%)) came out at 56%. The half-life in series [2] (male, ICR, po, 10 mg/kg, T1/2 (po) (h)) was 2.85 h. Further, the half-inhibitory concentration (IC50) against human DAT came to 1000 nM; on human SERT, 1200 nM.
`CN[C@]1(c2ccccc2)CCc2ncsc2C1` [R-A13]: the Ki at Sigma2 receptor (setting [10]) was found to be 289 nM.
